US9695155B2, “Herbicidal substituted pyrimidinyloxy benzene compounds” (E. I. DU PONT DE NEMOURS AND COMPANY, priority 2013, dated 2017)

Legend:
Experiment in all cases: Test C preemergence
[1] = system: blackgrass; type: in vivo, Alopecurus myosuroides
Method in brief: (§1)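 Sown in loam/sand → sprayed pre-emergence; or grown to 1–4 leaves in peat mix → sprayed post-emergence. Same solvent/surfactant formulation both ways. Greenhouse 13–15 d. Score 0–100 visual.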

[2] = system: wheat, winter; type: in vivo, Triticum aestivum
Method in brief: as §1

[3] = system: galium; type: in vivo, Galium aparine
Method in brief: as §1

[4] = system: giant foxtail; type: in vivo, Setaria faberii
Method in brief: as §1

[5] = system: johnsongrass; type: in vivo, Sorghum halepense
Method in brief: as §1

[6] = system: lambsquarters; type: in vivo, Chenopodium album
Method in brief: as §1

[7] = system: yellow nutsedge; type: in vivo, Cyperus esculentus
Method in brief: as §1

[8] = system: pigweed; type: in vivo, Amaranthus retroflexus
Method in brief: as §1

[9] = system: ragweed; type: in vivo, Ambrosia elatior
Method in brief: as §1

[10] = system: soybean; type: in vivo, Glycine max
Method in brief: as §1

[11] = system: barnyardgrass; type: in vivo, Echinochloa crus-galli
Method in brief: as §1

[12] = system: oilseed rape; type: in vivo, Brassica napus
Method in brief: as §1

[13] = system: waterhemp; type: in vivo, Amaranthus rudis
Method in brief: as §1

[14] = system: velvetleaf; type: in vivo, Abutilon theophrasti
Method in brief: as §1

[15] = 16 g ai/ha, preemergence, scale 0 to 100 (0 no effect, 100 complete control)
[16] = 125 g ai/ha, preemergence, scale 0 (no effect) to 100 (complete control)
[17] = Preemergence, 62 g ai/ha, scale 0 to 100, 0 no effect, 100 complete control

N#Cc1cccc(Oc2ncc(Cl)cn2)c1-n1cc(OCC(F)(F)F)cn1 [Compound 274, 3-[(5-chloro-2-pyrimidinyl)oxy]-2-[4-(2,2,2-trifluoroethoxy)-1H-pyrazol-1-yl]benzonitrile]
pest or weed control at 16 g/ha ([1]; Alopecurus myosuroides, pre-emergence, 16 g ai/ha, preemergence, scale 0 to 100 (0 no effect, 100 complete control), read-out: Blackgrass plant response rating): 50% | pest or weed control at 125 g/ha ([1]; Alopecurus myosuroides, pre-emergence, 125 g ai/ha, preemergence, scale 0 (no effect) to 100 (complete control), read-out: Blackgrass plant response rating): 90% | pest or weed control at 62 g/ha ([1]; Alopecurus myosuroides, pre-emergence, Preemergence, 62 g ai/ha, scale 0 to 100, 0 no effect, 100 complete control, read-out: Plant response rating, Blackgrass): 90% | plant injury at 16 g/ha ([2]; Triticum aestivum, pre-emergence, 16 g ai/ha, preemergence, scale 0 to 100 (0 no effect, 100 complete control), read-out: Wheat plant response rating): 20% | plant injury at 125 g/ha ([2]; Triticum aestivum, pre-emergence, 125 g ai/ha, preemergence, scale 0 (no effect) to 100 (complete control), read-out: Wheat plant response rating): 90% | plant injury at 62 g/ha ([2]; Triticum aestivum, pre-emergence, Preemergence, 62 g ai/ha, scale 0 to 100, 0 no effect, 100 complete control, read-out: Plant response rating, Wheat): 90% | pest or weed control at 16 g/ha ([3]; Galium, pre-emergence, 16 g ai/ha, preemergence, scale 0 to 100 (0 no effect, 100 complete control), read-out: Galium plant response rating): 90% | pest or weed control at 125 g/ha ([3]; Galium, pre-emergence, 125 g ai/ha, preemergence, scale 0 (no effect) to 100 (complete control), read-out: Galium plant response rating): 98% | pest or weed control at 62 g/ha ([3]; Galium, pre-emergence, Preemergence, 62 g ai/ha, scale 0 to 100, 0 no effect, 100 complete control, read-out: Plant response rating, Galium): 98% | pest or weed control at 16 g/ha ([4]; Setaria faberi, pre-emergence, 16 g ai/ha, preemergence, scale 0 to 100 (0 no effect, 100 complete control), read-out: Foxtail, Giant plant response rating): 98% | pest or weed control at 125 g/ha ([4]; Setaria faberi, pre-emergence, 125 g ai/ha, preemergence, scale 0 (no effect) to 100 (complete control), read-out: Foxtail, Giant plant response rating): 100% | pest or weed control at 62 g/ha ([4]; Setaria faberi, pre-emergence, Preemergence, 62 g ai/ha, scale 0 to 100, 0 no effect, 100 complete control, read-out: Plant response rating, Foxtail, Giant): 100% | pest or weed control at 16 g/ha ([5]; Sorghum halepense, pre-emergence, 16 g ai/ha, preemergence, scale 0 to 100 (0 no effect, 100 complete control), read-out: Johnsongrass plant response rating): 10% | pest or weed control at 125 g/ha ([5]; Sorghum halepense, pre-emergence, 125 g ai/ha, preemergence, scale 0 (no effect) to 100 (complete control), read-out: Johnsongrass plant response rating): 98% | pest or weed control at 62 g/ha ([5]; Sorghum halepense, pre-emergence, Preemergence, 62 g ai/ha, scale 0 to 100, 0 no effect, 100 complete control, read-out: Plant response rating, Johnsongrass): 95% | pest or weed control at 16 g/ha ([6]; Chenopodium album, pre-emergence, 16 g ai/ha, preemergence, scale 0 to 100 (0 no effect, 100 complete control), read-out: Lambsquarters plant response rating): 100% | pest or weed control at 125 g/ha ([6]; Chenopodium album, pre-emergence, 125 g ai/ha, preemergence, scale 0 (no effect) to 100 (complete control), read-out: Lambsquarters plant response rating): 98% | pest or weed control at 62 g/ha ([6]; Chenopodium album, pre-emergence, Preemergence, 62 g ai/ha, scale 0 to 100, 0 no effect, 100 complete control, read-out: Plant response rating, Lambsquarters): 100% | pest or weed control at 16 g/ha ([7]; Cyperus, pre-emergence, 16 g ai/ha, preemergence, scale 0 to 100 (0 no effect, 100 complete control), read-out: Nutsedge, Yellow plant response rating): 20% | pest or weed control at 125 g/ha ([7]; Cyperus, pre-emergence, 125 g ai/ha, preemergence, scale 0 (no effect) to 100 (complete control), read-out: Nutsedge, Yellow plant response rating): 95% | pest or weed control at 62 g/ha ([7]; Cyperus, pre-emergence, Preemergence, 62 g ai/ha, scale 0 to 100, 0 no effect, 100 complete control, read-out: Plant response rating, Nutsedge, Yellow): 85% | pest or weed control at 16 g/ha ([8]; Amaranthus retroflexus, pre-emergence, 16 g ai/ha, preemergence, scale 0 to 100 (0 no effect, 100 complete control), read-out: Pigweed plant response rating): 100% | pest or weed control at 125 g/ha ([8]; Amaranthus retroflexus, pre-emergence, 125 g ai/ha, preemergence, scale 0 (no effect) to 100 (complete control), read-out: Pigweed plant response rating): 100% | pest or weed control at 62 g/ha ([8]; Amaranthus retroflexus, pre-emergence, Preemergence, 62 g ai/ha, scale 0 to 100, 0 no effect, 100 complete control, read-out: Plant response rating, Pigweed): 100% | pest or weed control at 16 g/ha ([9]; Ambrosia artemisiifolia, pre-emergence, 16 g ai/ha, preemergence, scale 0 to 100 (0 no effect, 100 complete control), read-out: Ragweed plant response rating): 10% | pest or weed control at 125 g/ha ([9]; Ambrosia artemisiifolia, pre-emergence, 125 g ai/ha, preemergence, scale 0 (no effect) to 100 (complete control), read-out: Ragweed plant response rating): 75% | pest or weed control at 62 g/ha ([9]; Ambrosia artemisiifolia, pre-emergence, Preemergence, 62 g ai/ha, scale 0 to 100, 0 no effect, 100 complete control, read-out: Plant response rating, Ragweed): 35% | plant injury at 16 g/ha ([10]; Glycine max, pre-emergence, 16 g ai/ha, preemergence, scale 0 to 100 (0 no effect, 100 complete control), read-out: Soybean plant response rating): 35% | plant injury at 125 g/ha ([10]; Glycine max, pre-emergence, 125 g ai/ha, preemergence, scale 0 (no effect) to 100 (complete control), read-out: Soybean plant response rating): 98% | plant injury at 62 g/ha ([10]; Glycine max, pre-emergence, Preemergence, 62 g ai/ha, scale 0 to 100, 0 no effect, 100 complete control, read-out: Plant response rating, Soybean): 95% | pest or weed control at 16 g/ha ([11]; Echinochloa crus-galli, pre-emergence, 16 g ai/ha, preemergence, scale 0 to 100 (0 no effect, 100 complete control), read-out: Barnyardgrass plant response rating): 90% | pest or weed control at 125 g/ha ([11]; Echinochloa crus-galli, pre-emergence, 125 g ai/ha, preemergence, scale 0 (no effect) to 100 (complete control), read-out: Barnyardgrass plant response rating): 100% | pest or weed control at 62 g/ha ([11]; Echinochloa crus-galli, pre-emergence, Preemergence, 62 g ai/ha, scale 0 to 100, 0 no effect, 100 complete control, read-out: Plant response rating, Barnyardgrass): 100% | plant injury at 16 g/ha ([12]; Brassica napus, pre-emergence, 16 g ai/ha, preemergence, scale 0 to 100 (0 no effect, 100 complete control), read-out: Oilseed Rape plant response rating): 80% | plant injury at 125 g/ha ([12]; Brassica napus, pre-emergence, 125 g ai/ha, preemergence, scale 0 (no effect) to 100 (complete control), read-out: Oilseed Rape plant response rating): 95% | plant injury at 62 g/ha ([12]; Brassica napus, pre-emergence, Preemergence, 62 g ai/ha, scale 0 to 100, 0 no effect, 100 complete control, read-out: Plant response rating, Oilseed Rape): 95% | pest or weed control at 16 g/ha ([13]; Amaranthus tuberculatus, pre-emergence, 16 g ai/ha, preemergence, scale 0 to 100 (0 no effect, 100 complete control), read-out: Waterhemp plant response rating): 100% | pest or weed control at 125 g/ha ([13]; Amaranthus tuberculatus, pre-emergence, 125 g ai/ha, preemergence, scale 0 (no effect) to 100 (complete control), read-out: Waterhemp plant response rating): 100% | pest or weed control at 62 g/ha ([13]; Amaranthus tuberculatus, pre-emergence, Preemergence, 62 g ai/ha, scale 0 to 100, 0 no effect, 100 complete control, read-out: Plant response rating, Waterhemp): 100% | pest or weed control at 16 g/ha ([14]; Abutilon theophrasti, pre-emergence, 16 g ai/ha, preemergence, scale 0 to 100 (0 no effect, 100 complete control), read-out: Velvetleaf plant response rating): 80% | pest or weed control at 125 g/ha ([14]; Abutilon theophrasti, pre-emergence, 125 g ai/ha, preemergence, scale 0 (no effect) to 100 (complete control), read-out: Velvetleaf plant response rating): 100% | pest or weed control at 62 g/ha ([14]; Abutilon theophrasti, pre-emergence, Preemergence, 62 g ai/ha, scale 0 to 100, 0 no effect, 100 complete control, read-out: Plant response rating, Velvetleaf): 100%

Cc1cnc(Oc2cccc(C#N)c2-n2cc(C(F)(F)F)cn2)nc1 [Compound 180]
Blackgrass plant response rating [1, 15]: 20 | Blackgrass plant response rating [1, 16]: 90 | Plant response rating, Blackgrass [1, 17]: 90 | Wheat plant response rating [2, 15]: 0 | Wheat plant response rating [2, 16]: 50 | Plant response rating, Wheat [2, 17]: 5 | Galium plant response rating [3, 15]: 80 | Galium plant response rating [3, 16]: 100 | Plant response rating, Galium [3, 17]: 100 | Foxtail, Giant plant response rating [4, 15]: 90 | Foxtail, Giant plant response rating [4, 16]: 100 | Plant response rating, Foxtail, Giant [4, 17]: 100 | Johnsongrass plant response rating [5, 15]: 0 | Johnsongrass plant response rating [5, 16]: 98 | Plant response rating, Johnsongrass [5, 17]: 75 | Lambsquarters plant response rating [6, 15]: 85 | Lambsquarters plant response rating [6, 16]: 100 | Plant response rating, Lambsquarters [6, 17]: 100 | Nutsedge, Yellow plant response rating [7, 15]: 5 | Nutsedge, Yellow plant response rating [7, 16]: 85 | Plant response rating, Nutsedge, Yellow [7, 17]: 65 | Pigweed plant response rating [8, 15]: 85 | Pigweed plant response rating [8, 16]: 100 | Plant response rating, Pigweed [8, 17]: 100 | Ragweed plant response rating [9, 15]: 20 | Ragweed plant response rating [9, 16]: 98 | Plant response rating, Ragweed [9, 17]: 80 | Soybean plant response rating [10, 15]: 90 | Soybean plant response rating [10, 16]: 98 | Plant response rating, Soybean [10, 17]: 98 | Barnyardgrass plant response rating [11, 15]: 60 | Barnyardgrass plant response rating [11, 16]: 100 | Plant response rating, Barnyardgrass [11, 17]: 100 | Oilseed Rape plant response rating [12, 15]: 55 | Oilseed Rape plant response rating [12, 16]: 100 | Plant response rating, Oilseed Rape [12, 17]: 100 | Waterhemp plant response rating [13, 15]: 90 | Waterhemp plant response rating [13, 16]: 100 | Plant response rating, Waterhemp [13, 17]: 100 | Velvetleaf plant response rating [14, 15]: 75 | Velvetleaf plant response rating [14, 16]: 100 | Plant response rating, Velvetleaf [14, 17]: 100
